This note sets out measurements from patent US20240293559A1, “SHP2 inhibitor, pharmaceutical composition containing the same and application thereof” (BEIJING TIDE PHARMACEUTICAL CO., LTD., priority 2021, published 2024).

The target of the assay is T1, SHP2 (Homo sapiens, UniProt Q06124).
T1 construct: endogenous in cells; host or cells: MV 411
T1 sequence (Q06124 1-593): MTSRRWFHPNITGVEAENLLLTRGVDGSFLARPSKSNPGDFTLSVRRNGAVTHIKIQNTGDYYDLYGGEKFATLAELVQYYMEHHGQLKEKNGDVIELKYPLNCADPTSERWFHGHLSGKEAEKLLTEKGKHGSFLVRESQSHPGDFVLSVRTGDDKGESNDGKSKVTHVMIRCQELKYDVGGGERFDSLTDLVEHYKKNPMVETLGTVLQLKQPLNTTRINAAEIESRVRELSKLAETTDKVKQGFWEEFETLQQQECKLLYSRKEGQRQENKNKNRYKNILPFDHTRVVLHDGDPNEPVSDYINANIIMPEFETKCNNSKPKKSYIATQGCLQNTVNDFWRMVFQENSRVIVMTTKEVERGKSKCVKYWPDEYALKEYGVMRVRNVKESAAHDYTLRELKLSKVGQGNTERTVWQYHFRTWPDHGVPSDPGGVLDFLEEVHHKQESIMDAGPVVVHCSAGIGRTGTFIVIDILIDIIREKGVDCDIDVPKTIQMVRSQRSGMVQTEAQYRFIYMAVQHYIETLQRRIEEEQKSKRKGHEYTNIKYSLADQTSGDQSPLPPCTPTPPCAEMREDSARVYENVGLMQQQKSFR
Kind of assay: SHP2 degradation in MV 411 cells by Western blot (median degradation concentration). It is filed as cell-based. To be noted: 24 hours with compound, SHP-2 antibody Western blot, concentration of the median degradation from exposure gray scale. The text has this: Reagent: complete DMEM medium, Gibco products. Fetal bovine serum, manufactured byThermoFisher. Trypsin, manufactured byThermoFisher. The SHP-2 antibody is produced by CST. Cell line, MV 411, the blast cells of patients with bi-phenotypic B-myelomonocytic leukemia, was established by Rovera. Measuring method: took the cells growing in the logarithmic phase, collected and suspended the cells in DMEM containing 10% fetal calf serum, gently blowed and beated the cells into single cell suspension by using a pipette, and counted the living cells under a microscope. […] Then cultured for 24 hours. All cells were collected and washed with PBS, lysed with RIPA lysate and collected into a 1.7 ml tube. […] metal bath for 5 minutes to fully denature the protein. 100V constant voltage electrophoresis after Western condensation and loading, stopped when bromophenol blue band reached the end point. The cellulose acetate membrane is transferred by a wet method, 45 minutes at a constant flow of 300-500 mA, 5% BSA is used for blocking for 1-2 hours at room temperature. Primary antibody of 1:500-1:8000 were used for incubation at 25° C. for 40 minutes and then washed three times. Secondary antibody was used for incubation for 15-40 min at room temperature. The proteins were detected using ultrasensitive ECL luminophores such as […], using an X-Ray film automatic developing machine. The concentration of the median degradation was calculated by exposure gray scale.

By DC50 is commonly meant the midpoint of the concentration-degradation curve. For the compound `CCOc1cc2oc(-c3ccc(OCCOCCOCCOCCOc4cccc5c4C(=O)N(C4CCC(=O)NC4=O)C5=O)cc3Cl)cc(=O)c2cc1-c1cc(NC(=O)NC)cc(C(N)=O)c1` (centres unmarked) [Compound 70], the DC50 was more than 250 nM.

Regarding `CCOc1cc2oc(-c3ccc(OCCOCCOCCOCCOc4cccc5c4C(=O)N(C4CCC(=O)NC4=O)C5=O)cc3Cl)cc(=O)c2cc1-c1cc(N)cc(C(N)=O)c1` (centres unmarked) [Compound 32], the DC50 came out at 850 nM.

In the case of `CCOc1cc2oc(-c3ccc(OCCOCCOCCOCCOc4cccc5c4C(=O)N(C4CCC(=O)NC4=O)C5=O)cc3Cl)cc(=O)c2cc1-c1cc(C(N)=O)cc(N(C)S(=O)(=O)c2ccccc2)c1` (centres unmarked) [Compound 69], the DC50 is more than 250 nM.

For the compound `CCOc1cc2oc(-c3ccc(NCCOCCOCCOCCOc4ccc5c(c4)C(=O)N(C4CCC(=O)NC4=O)C5=O)cc3Cl)cc(=O)c2cc1-c1cccc(C(C)=O)c1` (centres unmarked) [Compound 86], the DC50 was 50 nM.

Regarding `CCOc1cc2oc(-c3ccc(OCCOCCOCCOCCOc4cccc5c4C(=O)N(C4CCC(=O)NC4=O)C5=O)cc3Cl)cc(=O)c2cc1-c1ccc(S(=O)(=O)N2CCOCC2)cc1F` (centres unmarked) [Compound 33], the 50% degradation concentration (DC50) is 3500 nM.

For the compound `CCOc1cc2oc(-c3ccc(NCCOCCOCCOCCOc4cccc5c4C(=O)N(C4CCC(=O)NC4=O)C5=O)cc3Cl)cc(=O)c2cc1CN1CCC[C@@H]1CO` (some centres unmarked) [Compound 53], the 50% degradation concentration (DC50) is 5 nM.

`CCOc1cc2oc(-c3ccc(NCCOCCOCCOCCOc4cccc5c4C(=O)N(C4CCC(=O)NC4=O)C5=O)cc3Cl)cc(=O)c2cc1CN1CCCC[C@@H]1C(N)=O` (some centres unmarked) [Compound 51]: the DC50 was more than 250 nM.

In the case of `CCOc1cc2oc(-c3ccc(OCCOCCOCCOCCOc4cccc5c4C(=O)N(C4CCC(=O)NC4=O)C5=O)cc3Cl)cc(=O)c2cc1-c1cncc(C=O)c1` (centres unmarked) [Compound 29], the half-maximal degradation concentration (DC50) came to 15 nM.

`CCOc1cc2oc(-c3ccc(OCCOCCOCCOCCOc4cccc5c4C(=O)N(C4CCC(=O)NC4=O)C5=O)cc3Cl)cc(=O)c2cc1-c1ccc2c(c1)COC2=O` (centres unmarked) [Compound 31]: the DC50 stood at 300 nM.

Regarding `CCOc1cc2oc(-c3ccc(NCCOCCOCCOCCOc4cccc5c4C(=O)N(C4CCC(=O)N(COC(=O)CC6CCCCC6)C4=O)C5=O)cc3Cl)cc(=O)c2cc1-c1cccc(C(C)=O)c1` (centres unmarked) [Compound 89], the DC50 worked out at 75 nM.

Turning to `CCOc1cc2oc(-c3ccc(OCCOCCOCCOCCOc4cccc5c4C(=O)N(C4CCC(=O)NC4=O)C5=O)cc3Cl)cc(=O)c2cc1-c1cc(C(N)=O)cc(N(C)S(C)(=O)=O)c1` (centres unmarked) [Compound 67], the half-maximal degradation concentration (DC50) was more than 250 nM.

For `CCOc1cc2oc(-c3ccc(OCCOCCOCCOCCOc4cccc5c4C(=O)N(C4CCC(=O)NC4=O)C5=O)cc3Cl)cc(=O)c2cc1-c1cccc(C(=O)OC)c1F` (centres unmarked) [Compound 27], the 50% degradation concentration (DC50) came out at 2 nM.

For `CCOc1cc2oc(-c3ccc(OCCOCCOCCOCCOc4ccc5c(c4)C(=O)N(C4CCC(=O)NC4=O)C5=O)cc3Cl)cc(=O)c2cc1-c1cncc(C(C)=O)c1` (centres unmarked) [Compound 87], the DC50 was 45 nM.

As for `CCOc1cc2oc(-c3ccc(OCCOCCOCCOCCOc4cccc5c4C(=O)N(C4CCC(=O)NC4=O)C5=O)cc3Cl)cc(=O)c2cc1-c1cc(C(N)=O)cc(C(C)(C)C)c1` (centres unmarked) [Compound 43], the DC50 was more than 250 nM.

On to `CCOc1cc2oc(-c3ccc(OCCOCCOCCOCCOc4cccc5c4C(=O)N(C4CCC(=O)NC4=O)C5=O)cc3Cl)cc(=O)c2cc1-c1cc(C(N)=O)ccc1O` (centres unmarked) [Compound 46], for which the half-maximal degradation concentration (DC50) came to 6 nM.

Consider `CCOc1cc2oc(-c3ccc(OCCOCCOCCOCCOc4cccc5c4C(=O)N(C4CCC(=O)NC4=O)C5=O)cc3Cl)cc(=O)c2cc1-c1cc(O)cc(C(N)=O)c1` (centres unmarked) [Compound 73], for which the DC50 was more than 250 nM.

Consider `CCOc1cc2oc(-c3ccc(NCCOCCOCCOCCOc4cccc5c4C(=O)N(C4CCC(=O)NC4=O)C5=O)cc3Cl)cc(=O)c2cc1-c1cc(C=O)ccc1F` (centres unmarked) [Compound 13], for which the DC50 was 50 nM.

On to `CCOc1cc2oc(-c3ccc(NCCOCCOCCOCCOc4cccc5c4C(=O)N(C4CCC(=O)NC4=O)C5=O)cc3Cl)cc(=O)c2cc1-c1cccc(C=O)c1` (centres unmarked) [Compound 18], for which the DC50 was more than 1000 nM.

Regarding `CCOc1cc2oc(-c3ccc(OCCOCCOCCOCCOc4cccc5c4C(=O)N(C4CCC(=O)NC4=O)C5=O)cc3Cl)cc(=O)c2cc1-c1cc(C(N)=O)cc(-c2cccnc2)c1` (centres unmarked) [Compound 57], the DC50 is more than 1000 nM.

Turning to `CCOc1cc2oc(-c3ccc(OCCOCCOCCOCCOc4cccc5c4C(=O)N(C4CCC(=O)NC4=O)C5=O)cc3Cl)cc(=O)c2cc1-c1cc(C(N)=O)cc(C(=O)NC)c1` (centres unmarked) [Compound 76], the DC50 was more than 250 nM.

With `CCOc1cc2oc(-c3ccc(OCCOCCOCCOCCOc4cccc5c4C(=O)N(C4CCC(=O)NC4=O)C5=O)cc3Cl)cc(=O)c2cc1-c1cc(C(N)=O)cc(-c2ccccc2)c1` (centres unmarked) [Compound 55], the DC50 is more than 1000 nM.

In the case of `CCOc1cc2oc(-c3ccc(OCc4cn(CC(=O)N5CCC(OC6CC(Oc7cccc8c7C(=O)N(C7CCC(=O)NC7=O)C8=O)C6)CC5)nn4)cc3Cl)cc(=O)c2cc1-c1cccc(C(C)=O)c1` (centres unmarked) [Compound 88], the half-maximal degradation concentration (DC50) was found to be 55 nM.

For the compound `CCOc1cc2oc(-c3ccc(OCCOCCOCCOCCOc4cccc5c4C(=O)N(C4CCC(=O)NC4=O)C5=O)cc3Cl)cc(=O)c2cc1-c1cc(C(N)=O)cc(C(=O)Nc2ccccc2)c1` (centres unmarked) [Compound 78], the DC50 is more than 250 nM.

Take `CCOc1cc2oc(-c3ccc(OCCOCCOCCOCCOc4cccc5c4C(=O)N(C4CCC(=O)NC4=O)C5=O)cc3Cl)cc(=O)c2cc1-c1cc(C(N)=O)cc(-c2c[nH]cn2)c1` (centres unmarked) [Compound 61]: the DC50 is more than 250 nM.

`CCOc1cc2oc(-c3ccc(OCCOCCOCCOCCOc4cccc5c4C(=O)N(C4CCC(=O)NC4=O)C5=O)cc3Cl)cc(=O)c2cc1CCC(=O)Nc1ccccc1` (centres unmarked) [Compound 72]: the half-maximal degradation concentration (DC50) was more than 250 nM.

Turning to `CCOc1cc2oc(-c3ccc(NCCOCCOCCOCCOc4cccc5c4C(=O)N(C4CCC(=O)NC4=O)C5=O)cc3Cl)cc(=O)c2cc1-c1cccc(C(C)=O)c1` (centres unmarked) [Compound 14], the DC50 was 25 nM.

In the case of `CCOc1cc2oc(-c3ccc(NCCOCCOCCOCCOc4cccc5c4C(=O)N(C4CCC(=O)NC4=O)C5=O)cc3Cl)cc(=O)c2cc1-c1ccc(OC)cc1F` (centres unmarked) [Compound 15], the DC50 turned out to be 250 nM.

`CCOc1cc2oc(-c3ccc(OCCOCCOCCOCCOc4cccc5c4C(=O)N(C4CCC(=O)NC4=O)C5=O)cc3Cl)cc(=O)c2cc1-c1cc(C(N)=O)cc(C(F)(F)F)c1` (centres unmarked) [Compound 44]: the half-maximal degradation concentration (DC50) was 750 nM.

`CCOc1cc2oc(-c3ccc(OCCOCCOCCOCCOc4cccc5c4C(=O)N(C4CCC(=O)NC4=O)C5=O)cc3Cl)cc(=O)c2cc1-c1cc(C(N)=O)cc(C(N)=O)c1` (centres unmarked) [Compound 74]: the DC50 worked out at 2 nM.
